≈ marks a conversion by molar mass, not a printed value.
Legend:
[1] = tested on: P. falciparum K1 strain (Thailand resistant to chloroquine); assay: semiautomated microdilution assay, [3H]-hypoxanthine incorporation, K1 strain; type: cell-based, Plasmodium falciparum; conditions: K1 strain, 72 h incubation
Outline: (§1)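 Asynchronous stock cultures → intraerythrocytic forms; semiautomated microdilution; IC50 by logit regression.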

[2] = tested on: ANKA strain of P. berghei; assay: single dose STI in vivo screen in infected mice; set-up: species or system Plasmodium berghei; conditions: for Activity (%) po / Activity (%) sc / Activity (%) SSVpo: percent reduction in parasitemia day 3 post-infection, mice; for Activity (%) po / Survival (days) po: single 10 mg/kg po in 3% ethanol and 7% Tween 80; for Activity (%) sc / Survival (days) sc: single 10 mg/kg sc in 3% ethanol and 7% Tween 80; for Survival (days) po / Survival (days) sc / Survival (days) SSVpo: untreated control 5.6 ± 0.3; for Activity (%) SSVpo: single po dose in standard suspending vehicle (SSV); for Survival (days) SSVpo: single po dose in SSV
Outline: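 Groups of 3-5 Moro SPF or NMRI mice infected with the ANKA strain of P. berghei received a single dose of trioxolane on day one post-infection. The compound was given in 3% ethanol and 7% Tween 80 or in SSV (0.5% w/v CMC, 0.5% v/v benzyl alcohol, 0.4% v/v Tween 80, 0.9% w/v sodium chloride in water). Antimalarial activity was scored as percent reduction in parasitemia on day three and as survival time versus untreated controls. Survival to day 30 counted as cure.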

[3] = tested on: P. falciparum NF54 strain (sensitive to standard antimalarials); assay: semiautomated microdilution assay, [3H]-hypoxanthine incorporation, NF54 strain; type: cell-based, Plasmodium falciparum; conditions: NF54 strain, 72 h incubation
Outline: as §1

[4] = tested on: Schistosoma mansoni 21-day-old schistosomules; assay: effect on 21-day-old schistosomules in mice; type: in vivo; conditions: single 200 mg/kg per os, female mice
Description: All groups were killed 4 weeks after treatment and the liver and intestine were removed and separated. The liver and intestine were compressed and alive male and female worms could be seen and counted. The effect of the compounds was evaluated by mean total and female worm burden.

[5] = tested on: Schistosoma mansoni adult schistosomes (49-day-old); assay: effect on adult schistosomes (49-day-old) in mice; type: in vivo; conditions: for % reduction of adult worms growth at day 49 after per os application of 400 mg/kg, TWR (%) / adult worms at day 49, per os 400 mg/kg, DEAD WORM (%): single 400 mg/kg per os
Description: Mice were infected with 100 Schistosoma mansoni cercariae […]. Each group was treated per os with OZ compounds at single doses of 200, 400, and 600 mg/kg. […] All groups were killed 4 weeks after treatment and the liver and intestine were removed and separated. The liver and intestine were compressed and alive male and female worms could be seen and counted.

SMILES	IC50 (ng/ml) K1 [1]	Activity (%) po [2]	Activity (%) sc [2]	Survival (days) po [2]	Survival (days) sc [2]	IC50 (ng/ml) NF54 [3]	% reduction of schistosomule growth at day 21 after per os application of 200 mg/kg, FWR (%) [4] [%]	% reduction of schistosomule growth at day 21 after per os application of 200 mg/kg, TWR (%) [4] [%]	% reduction of adult worms growth at day 49 after per os application of 400 mg/kg, TWR (%) [5]	adult worms at day 49, per os 400 mg/kg, DEAD WORM (%) [5]	Activity (%) SSVpo [2] [%]	Survival (days) SSVpo [2] [days]	Activity (%) po ([2]; 10 mg/kg) [%]	Activity (%) sc ([2]; 10 mg/kg) [%]	Survival (days) sc ([2]; 10 mg/kg) [days]	Survival (days) po ([2]; 10 mg/kg) [days]	adult worms at day 49, per os 600 mg/kg, DEAD WORM (%) ([5]; single 600 mg/kg per os)
C1C2CC3CC1CC(C2)C31OOC2(O1)C1CC3CC(C1)CC2C3 (stereo not drawn) [OZ04]	>100/>100 ng/ml	0/NA/0^1%	0/NA/0^1%	5.3/NA/5.3^1 days	5.3/NA/5.3^1 days	>100/>100 ng/ml	7	7	0/0%	0/0%							
O=C1CC2CC3(CC2C1)OOC1(O3)C2CC3CC(C2)CC1C3 (stereo not drawn) [OZ12]		75%	99.8%	7.0 days	9.3 days		79	78	14%	0%							
C1CCCCCC2(CCCCC1)OOC1(O2)C2CC3CC(C2)CC1C3 (stereo not drawn) [OZ20]	15 ng/mL (≈ 43 nM)					20 ng/mL (≈ 57.4 nM)	0	0	0/0%	0/0%							
c1ccc2c(c1)COC1(CCC3(CC1)OOC1(O3)C3CC4CC(C3)CC1C4)OC2 (stereo not drawn) [OZ31]		99.95%	99.95%	9.0 days	17.7 days		63	60	4/4%	4/4%	90	7.3					
O=[N+]([O-])c1ccc(N2CCC3(CC2)OOC2(O3)C3CC4CC(C3)CC2C4)cc1 (stereo not drawn) [OZ151]	3.8 ng/mL (≈ 9.83 nM)	71%	99.63%	7.3 days	11.0 days	4.0 ng/mL (≈ 10.4 nM)	19	19			71	7.3					
OC12CC3CC(C1)C1(OOC4(CCC5(CC4)OCCO5)O1)C(C3)C2 (stereo not drawn) [OZ152]	3.2 ng/mL (≈ 9.46 nM)			6.3 days		7.2 ng/mL (≈ 21.3 nM)	11	19			12	6.7	0	22	6.7		
CN1CCN(C(=O)N2CCC3(CC2)OOC2(O3)C3CC4CC(C3)CC2C4)CC1 (stereo not drawn) [OZ157]	0.20 ng/mL (≈ 0.511 nM)	90%	97%	7.3 days	8.3 days	0.22 ng/mL (≈ 0.562 nM)	68	65			80	8.3					
C1CCN(C2CCC3(CC2)OOC2(O3)C3CC4CC(C3)CC2C4)CC1 (stereo not drawn) [OZ159]	0.70 ng/mL (≈ 2.01 nM)	34%	98%	6.7 days	9.0 days	0.94 ng/mL (≈ 2.71 nM)	19	19			31	6.7					
c1ccc(CNC2CCC3(CC2)OOC2(O3)C3CC4CC(C3)CC2C4)cc1 (stereo not drawn) [OZ160]	0.70 ng/mL (≈ 1.89 nM)	45%	99.94%	6.3 days	12.0 days	0.87 ng/mL (≈ 2.35 nM)	0	15			43	6.7					
NC[C@H]1CC[C@]2(CC1)OOC1(O2)C2CC3CC(C2)CC1C3 (stereo partly drawn) [OZ163]	0.2/0.2 ng/ml		100%			0.2/0.2 ng/ml	80				99.94	9.0	99.90		9.7	8.0	
C1C2CC3CC1CC(C2)C31OOC2(CCC3(CC2)OOC2(O3)C3CC4CC(C3)CC2C4)O1 (stereo not drawn) [OZ169]	15 ng/mL (≈ 33.7 nM)	98%	99.76%	7.7 days	9.0 days	> 10 ng/mL	0	0			22	6.7					
NCCOc1ccc([C@H]2CC[C@]3(CC2)OO[C@]2(O3)C3CC4CC(C3)CC2C4)cc1 [OZ323]	0.85 ng/mL (≈ 2.13 nM)					1.1 ng/mL (≈ 2.75 nM)	97	95	20%	23%							
O=C(C1CCCCC1)N1CC(=O)N2CCc3ccccc3C2C1 (stereo not drawn) [PRAZIQUANTEL, praziquantel, reference compound]							0	0	96/96%	96/96%							100/100%

Source: US6906205B2, “Spiro and dispiro 1,2,4-trioxolane antimalarials” (Medicines for Malaria Venture MMV, priority 2002, dated 2005)
